Assay results: patent US8124793B2, “Derivatives of ethylene methanedisulfonate as cancer chemotherapeutic agents” (priority 2007, dated 2012)

What was measured:
Assay type in all cases: cell-based
human cancer cells = assay: NCI screen summary over the cancers tested (negative growth of human cancer cells); conditions: for Percentage of cancers showing negative growth cancers tested: cancers with negative growth / cancers tested
Protocol: (§1) In the NCI screening process, each compound was tested and described by a minimum of 60 data points. The test data include, but are not limited to the type of cancer, the molar concentration used in the screen, and the percent growth of the cancer. In some cases, NMR and elemental analysis were used for structural assignment.
The derivatives in the tables are grouped using the same category as in the tables 1-6.

HS 578T = assay: NCI screen, growth of human tumor cells: Breast Cancer HS 578T; conditions: HS 578T (Breast Cancer), 10^−4 molar
How it was run: (§2)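 At least 60 data points describe each compound tested by NCI. Cancer type, molar concentration in the screen and percent growth make up the recorded data.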

EKVX = assay: NCI screen, growth of human tumor cells: Non-Small Cell Lung EKVX; conditions: EKVX, 10^−4 molar
How it was run: as §2

MOLT-4 = assay: NCI screen, growth of human tumor cells: Leukemia MOLT-4
How it was run: as §2

MDA-N = assay: NCI screen, growth of human tumor cells: Breast Cancer MDA-N; conditions: 10^−4 molar
How it was run: as §2

SK-MEL-2 = assay: NCI screen, growth of human tumor cells: Melanoma SK-MEL-2
How it was run: as §2

MDA-MB-435 = assay: NCI screen, growth of human tumor cells: Breast Cancer MDA-MB-435
How it was run: as §2

NCI-H522 = assay: NCI screen, growth of human tumor cells: Non-Small Cell Lung NCI-H522; conditions: NCI-H522, 10^−4 molar
How it was run: as §2

UACC-62 = assay: NCI screen, growth of human tumor cells: Melanoma UACC-62
How it was run: as §2

MDA-MB-231/ATCC = assay: NCI screen, growth of human tumor cells: Breast Cancer MDA-MB-231/ATCC; conditions: MDA-MB-231/ATCC (Breast Cancer), 10^−4 molar
How it was run: as §2

SK-OV-3 = assay: NCI screen, growth of human tumor cells: Ovarian Cancer SK-OV-3; conditions: SK-OV-3, 10^−4 molar
How it was run: as §2

RPMI-8226 = assay: NCI screen, growth of human tumor cells: Leukemia RPMI-8226
How it was run: as §2

NCI-H460 = assay: NCI screen, growth of human tumor cells: Non-Small Cell Lung NCI-H460
How it was run: as §2

SF-539 = assay: NCI screen, growth of human tumor cells: CNS Cancer SF-539
How it was run: as §2

SU-DAL-7 = assay: NCI screen, growth of human tumor cells: Lymphoma SU-DAL-7
RL = assay: NCI screen, growth of human tumor cells: Lymphoma RL
M14 = assay: NCI screen, growth of human tumor cells: Melanoma M14; conditions: M14, 10^−4 molar
How it was run: as §2

HCT-15 = assay: NCI screen, growth of human tumor cells: Colon Cancer HCT-15; conditions: HCT-15 (Colon Cancer), 10^−4 molar
How it was run: as §2

KM12 = assay: NCI screen, growth of human tumor cells: Colon Cancer KM12; conditions: KM12, 10^−4 molar
How it was run: as §2

PA682 = assay: NCI screen, growth of human tumor cells: Lymphoma PA682
COLO205 = assay: NCI screen, growth of human tumor cells: Colon Cancer COLO205
How it was run: as §2

HL-60 (TB) = assay: NCI screen, growth of human tumor cells: Leukemia HL-60 (TB); conditions: HL-60(TB)
Protocol: as §1

KD488 = assay: NCI screen, growth of human tumor cells: Lymphoma KD488
AS283 = assay: NCI screen, growth of human tumor cells: Lymphoma AS283

SMILES: CC1=C(CC2S(=O)(=O)OCCOS2(=O)=O)C(=O)c2ccccc2C1=O [NSC 693874, ethylene (3-methyl-1,4-naphtho-2-quinoyl)-1,1-ethanedisulfonate]
- Percentage of cancers showing negative growth cancers tested (human cancer cells; 10^−4 M conc.): 98%
- Percentage of cancers showing negative growth cancers tested (human cancer cells; 10^−5 M conc.): 12%
- percent of growth of human tumor cells (HS 578T): −21%
- % Growth (EKVX): −93%
- percent of growth of human tumor cells (MOLT-4; MOLT-4 (Leukemia), 10^−4 molar): −51%
- percent of growth of human tumor cells (MDA-N): −59%
- % Growth (SK-MEL-2; SK-MEL-2, 10^−4 molar): −85%
- % Growth (MDA-MB-435; MDA-MB-435, 10^−4 molar): −92%
- % Growth (MDA-MB-435; MDA-MB-435, 10^−5 molar): 54%
- % Growth (NCI-H522): −69%
- % Growth (UACC-62; UACC-62, 10^−4 molar): −92%
- % Growth (UACC-62; UACC-62, 10^−5 molar): 48%
- percent of growth of human tumor cells (MDA-MB-231/ATCC): −22%
- % Growth (SK-OV-3): −75%
- % Growth (RPMI-8226; RPMI-8226, 10^−4 molar): −55%
- % Growth (NCI-H460; NCI-H460, 10^−4 molar): −73%
- % Growth (NCI-H460; NCI-H460, 10^−5 molar): 59%
- % Growth (SF-539; SF-539, 10^−4 molar): −100%
- % Growth (SF-539; SF-539, 10^−5 molar): 51%

SMILES: Cc1ccc2ccccc2c1CC1S(=O)(=O)OCCOS1(=O)=O [NSC 679043, ethylene 2-methyl-1-naphyl-1,1-ethanedisulfonate]
- % Growth (SU-DAL-7; SU-DAL-7, 10^−4 molar): −44%
- % Growth (SU-DAL-7; SU-DAL-7, 10^−5 molar): 14%
- percentage of cancers that had −100% growth (human cancer cells; 10^−4 M conc.): 8%
- Percentage of cancers showing negative growth cancers tested (human cancer cells; 10^−4 M conc.): 100%
- Percentage of cancers showing negative growth cancers tested (human cancer cells; 10^−5 M conc.): 9%
- % Growth (RL; 10^−4 molar): −45%
- % Growth (RL; 10^−5 molar): 33%
- % Growth (EKVX): −98%
- % Growth (MOLT-4; MOLT-4, 10^−4 molar): −46%
- % Growth (MOLT-4; MOLT-4, 10^−5 molar): 36%
- % Growth (M14): −78%
- percent of growth of human tumor cells (HCT-15): −49%
- % Growth (KM12): −69%
- percent of growth of human tumor cells (SK-MEL-2; SK-MEL-2 (Melanoma), 10^−4 molar): −59%
- % Growth (MDA-MB-435; MDA-MB-435, 10^−4 molar): −90%
- % Growth (MDA-MB-435; MDA-MB-435, 10^−5 molar): 47%
- % Growth (PA682; PA682, 10^−4 molar): −33%
- % Growth (PA682; PA682, 10^−5 molar): 45%
- % Growth (COLO205; COLO205, 10^−4 molar): −98%
- % Growth (COLO205; COLO205, 10^−5 molar): −27%
- percent of growth of human tumor cells (MDA-MB-231/ATCC): −12%
- % Growth (HL-60 (TB); 10^−4 molar): −49%
- % Growth (HL-60 (TB); 10^−5 molar): −33%
- % Growth (KD488; KD488, 10^−4 molar): −45%
- % Growth (KD488; KD488, 10^−5 molar): 30%
- % Growth (KD488; KD488, 10^−6 molar): 62%
- % Growth (KD488; KD488, 10^−7 molar): 54%
- % Growth (RPMI-8226; RPMI-8226, 10^−4 molar): −54%
- % Growth (RPMI-8226; RPMI-8226, 10^−5 molar): 56%
- % Growth (AS283; AS283, 10^−4 molar): −34%
- % Growth (AS283; AS283, 10^−5 molar): 37%
